Laboratory results taken from patent publication US10329278B2, “Pharmaceutical compounds” (Heptares Therapeutics Limited, priority 2017, dated 2019).

Legend:
Type in all cases: cell-based
[1] = target: T1, human muscarinic M1 receptor (Homo sapiens, UniProt P11229); experiment: Alphascreen Surefire phospho-ERK1/2 functional assay, M1; details: for EC50 / % Emax cf. ACh (M1) / pEC50 M1: CHO cells stably expressing human M1; for EC50 / pEC50 M1: agonist 5 min, 37° C.; for EC50: read-out: pEC50 M1 (converted); for Emax: CHO, read-out: % Emax cf. ACh (M1), CHO cells stably expressing human M1; for Emax / % Emax cf. ACh (M1): relative to ACh
T1 sequence (P11229 1-460): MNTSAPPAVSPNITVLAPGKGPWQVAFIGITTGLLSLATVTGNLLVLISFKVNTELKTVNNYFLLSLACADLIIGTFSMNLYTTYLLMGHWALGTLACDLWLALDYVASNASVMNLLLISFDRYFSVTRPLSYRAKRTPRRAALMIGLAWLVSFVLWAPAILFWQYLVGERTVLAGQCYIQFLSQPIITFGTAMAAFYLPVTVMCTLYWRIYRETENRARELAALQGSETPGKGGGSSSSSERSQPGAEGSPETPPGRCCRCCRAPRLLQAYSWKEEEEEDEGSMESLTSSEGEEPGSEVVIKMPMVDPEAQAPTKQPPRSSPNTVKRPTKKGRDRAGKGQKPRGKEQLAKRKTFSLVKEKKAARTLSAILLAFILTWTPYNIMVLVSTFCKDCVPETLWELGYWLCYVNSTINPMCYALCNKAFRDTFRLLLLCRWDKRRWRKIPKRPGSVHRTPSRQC
Procedure: (§1) ERK1/2 phosphorylation is a downstream consequence of both Gq/11 and Gi/o protein coupled receptor activation, making it highly suitable for the assessment of M1, M3 (Gq/11 coupled) and M2, M4 receptors (Gi/o coupled), rather than using different assay formats for different receptor subtypes. CHO cells stably expressing the human muscarinic M1, M2, M3 or M4 receptor were plated (25K/well) onto 96-well tissue culture plates in MEM-alpha+10% dialysed FBS. Once adhered, cells were serum-starved overnight. Agonist stimulation was performed by the addition of 5 μL agonist to the cells for 5 min (37° C.). Media was removed and 50 μL of lysis buffer added. After 15 min, a 4 μL sample was transferred to 384-well plate and 7 μL of detection mixture added.

[2] = target: T2, human muscarinic M2 receptor (Homo sapiens, UniProt P08172); experiment: Alphascreen Surefire phospho-ERK1/2 functional assay, M2; details: for EC50 / pEC50 M2 / % Emax cf. ACh (M2): CHO cells stably expressing human M2; for EC50 / pEC50 M2: agonist 5 min, 37° C.; for EC50: read-out: pEC50 M2 (converted); for Emax: CHO, read-out: % Emax cf. ACh (M2); for % Emax cf. ACh (M2): relative to ACh
T2 sequence (P08172 1-466): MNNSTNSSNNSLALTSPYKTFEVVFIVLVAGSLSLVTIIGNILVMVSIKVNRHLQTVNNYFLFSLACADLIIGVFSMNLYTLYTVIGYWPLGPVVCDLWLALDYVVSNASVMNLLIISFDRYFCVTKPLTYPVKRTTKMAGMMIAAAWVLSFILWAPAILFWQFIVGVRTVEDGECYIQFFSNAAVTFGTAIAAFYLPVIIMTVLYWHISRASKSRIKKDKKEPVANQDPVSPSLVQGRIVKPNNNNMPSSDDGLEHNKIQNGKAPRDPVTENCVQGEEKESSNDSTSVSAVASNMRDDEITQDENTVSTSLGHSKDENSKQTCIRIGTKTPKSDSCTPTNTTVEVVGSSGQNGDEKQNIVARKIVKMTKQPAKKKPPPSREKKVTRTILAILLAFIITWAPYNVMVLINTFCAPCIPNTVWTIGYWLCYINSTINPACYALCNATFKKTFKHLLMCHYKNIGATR
Procedure: as §1

[3] = target: T3, human muscarinic M3 receptor (Homo sapiens, UniProt P20309); experiment: Alphascreen Surefire phospho-ERK1/2 functional assay, M3; details: for EC50 / pEC50 M3 / % Emax cf. ACh (M3): CHO cells stably expressing human M3; for EC50 / pEC50 M3: agonist 5 min, 37° C.; for EC50: read-out: pEC50 M3 (converted); for Emax: CHO, read-out: % Emax cf. ACh (M3); for % Emax cf. ACh (M3): relative to ACh
T3 construct: expressed in transfected cells
T3 sequence (P20309 whole entry): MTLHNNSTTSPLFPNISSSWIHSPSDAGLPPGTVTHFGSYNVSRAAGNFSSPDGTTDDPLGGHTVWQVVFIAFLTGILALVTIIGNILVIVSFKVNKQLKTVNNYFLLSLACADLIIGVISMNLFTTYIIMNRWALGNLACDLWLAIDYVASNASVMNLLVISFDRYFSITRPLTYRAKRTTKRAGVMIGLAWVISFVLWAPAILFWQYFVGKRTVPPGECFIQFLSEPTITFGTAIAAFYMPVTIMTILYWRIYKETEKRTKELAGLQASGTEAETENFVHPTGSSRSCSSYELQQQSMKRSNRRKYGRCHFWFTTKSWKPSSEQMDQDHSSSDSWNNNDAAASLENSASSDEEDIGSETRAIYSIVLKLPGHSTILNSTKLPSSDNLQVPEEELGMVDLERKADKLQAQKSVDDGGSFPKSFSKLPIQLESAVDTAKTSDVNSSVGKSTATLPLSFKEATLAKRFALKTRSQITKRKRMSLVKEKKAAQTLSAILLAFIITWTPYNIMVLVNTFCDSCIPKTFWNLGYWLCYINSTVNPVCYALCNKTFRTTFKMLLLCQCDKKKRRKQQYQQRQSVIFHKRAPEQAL
Procedure: as §1

[4] = target: T4, human muscarinic M4 receptor (Homo sapiens, UniProt P08173); experiment: Alphascreen Surefire phospho-ERK1/2 functional assay, M4; details: for EC50 / % Emax cf. ACh (M4) / pEC50 M4: CHO cells stably expressing human M4; for EC50 / pEC50 M4: agonist 5 min, 37° C.; for EC50: read-out: pEC50 M4 (converted); for Emax: CHO, read-out: % Emax cf. ACh (M4), CHO cells stably expressing human M4; for Emax / % Emax cf. ACh (M4): relative to ACh
T4 construct: expressed in transfected cells
T4 sequence (P08173 1-479): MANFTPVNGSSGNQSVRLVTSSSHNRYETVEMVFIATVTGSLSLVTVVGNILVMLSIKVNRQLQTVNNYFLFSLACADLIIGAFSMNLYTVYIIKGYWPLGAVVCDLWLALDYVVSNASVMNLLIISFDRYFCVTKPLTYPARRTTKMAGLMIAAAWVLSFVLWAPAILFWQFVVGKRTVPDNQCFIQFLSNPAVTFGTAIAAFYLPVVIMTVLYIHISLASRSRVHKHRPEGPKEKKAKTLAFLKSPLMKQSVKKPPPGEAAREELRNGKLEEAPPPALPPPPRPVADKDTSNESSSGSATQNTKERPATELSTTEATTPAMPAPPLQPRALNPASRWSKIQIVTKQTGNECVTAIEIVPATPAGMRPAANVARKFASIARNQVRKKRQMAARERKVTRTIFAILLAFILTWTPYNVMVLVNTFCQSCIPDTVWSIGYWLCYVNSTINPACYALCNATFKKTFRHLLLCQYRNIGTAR
Procedure: as §1

SMILES	EC50 [1] [µM]	Emax [1] [%]	EC50 [2] [µM]	Emax [2] [%]	EC50 [3] [µM]	Emax [3] [%]	EC50 [4] [µM]	Emax [4] [%]	% Emax cf. ACh (M1) [1] [%]	% Emax cf. ACh (M4) [4] [%]	pEC50 M1 [1]	pEC50 M2 [2]	% Emax cf. ACh (M2) [2] [%]	pEC50 M3 [3]	% Emax cf. ACh (M3) [3] [%]	pEC50 M4 [4]
CCOC(=O)C1C2CN(C3CC4(CCN(C(=O)OCC)C4)C3)CC21 (mixture of isomers) [2-1 Mixture of isomers]	> 20	22	> 20	7	> 20	0	0.0776	86	–	–	–	–	–	–	–	–
CCOC(=O)N1CCC2(CC(N3CC4C(C3)C4C(=O)N3CCC34CC4)C2)C1 (single isomer, unassigned) [2-19 Isomer 2]	0.0132	93	> 20	16	> 20	35	0.0372	95	–	–	–	–	–	–	–	–
CCOC(=O)N1CCC2(CC(N3CC4C(C3)C4C(CC)=NOC)C2)C1 (single isomer, unassigned) [2-25 Isomer 4]	0.324	–	> 20	24	> 20	4	0.151	–	65	48	–	–	–	–	–	–
CCOC(=O)N1CCC2(CC(N3CC4C(C3)C4OC(C)c3ccccc3)C2)C1 (single isomer, unassigned) [2-28 Isomer 2]	0.0646	–	> 20	7	> 20	5	0.0537	–	104	51	–	–	–	–	–	–
CCOC(=O)N1CCC2(CC(N3C[C@@H]4[C@H](C3)[C@H]4c3ccnn3C)C2)C1 (single isomer, unassigned) [2-29 Isomer 2]	0.646	43	> 20	36	> 20	2	0.0871	83	–	–	–	–	–	–	–	–
CCOC(=O)N1C2CCCC1CC(N1CC3C(C1)C3C(=O)N(C)CC)C2 (single isomer, unassigned; isomer 1) [9-1 Isomer 1]	–	–	–	–	–	–	–	–	93	57	7.04	< 4.70	19	< 4.70	21	6.06
CCOC(=O)N1C2COCC1CC(N1CC3C(C1)C3C(=O)N1CCOCC1)C2 (single isomer, unassigned; isomer 1) [10-13 Isomer 1]	–	–	–	–	–	–	–	–	104	64	6.51	< 4.70	24	< 4.70	68	5.95
CCOC(=O)N1C2COCC1CC(N1CC3C(C1)C3C(=O)N(CC)CC)C2 (single isomer, unassigned; isomer 2) [10-2 Isomer 2]	–	–	–	–	–	–	–	–	113	62	7.15	< 4.70	25	< 4.70	10	6.04
CCOC(=O)N1C2COCC1CC(N1CC3C(C1)C3C(=O)N1CCOCC1)C2 (single isomer, unassigned; isomer 2) [10-13 Isomer 2]	–	–	–	–	–	–	–	–	101	59	6.43	< 4.70	24	< 4.70	22	4.99
CCOC(=O)[C@H]1[C@@H]2CN(C3CC4(C3)CN(C(=O)OCC)C4)C[C@@H]21 [Example 1-1, ethyl 6-[(1R,5S,6r)-6-(ethoxycarbonyl)-3-azabicyclo[3.1.0]hex-3-yl]-2-azaspiro[3.3]heptane-2-carboxylate]	9.33	115	> 20	12	> 20	6	0.316	73	–	–	–	–	–	–	–	–
